Reference: ChEMBL document CHEMBL1201862, “PubChem BioAssay data set” (2004)
Structures can show the parent of a compound that is named as a salt.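 Each compound was tested at five concentrations against cells in 96-well plates for 48 hours. GI50: concentration for 50% inhibition of growth.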 Calls of active or inactive are those of the source. Cut-off read from the data, not from the text of the source: active = GI50 up to about 1.1 µM and inactive = higher.

Assays:
Experiment in all cases: NCI tumour cell line growth inhibition, 48 h
[1] = test system: T47D
[2] = test system: MDA-MB-231
[3] = test system: SNB-19
[4] = test system: KM12
[5] = test system: OVCAR-8
[6] = test system: U-251
[7] = test system: MCF7
[8] = test system: SK-OV-3
[9] = test system: CAKI-1
[10] = test system: A549
[11] = test system: MOLT-4
[12] = test system: MDA-MB-435
[13] = test system: EKVX
[14] = test system: RXF 393
[15] = test system: SNB-75
[16] = test system: SK-MEL-2
[17] = test system: HOP-92
[18] = test system: PC-3
[19] = test system: SK-MEL-5
[20] = test system: NCI-H460

SMILES | GI50 [1] | GI50 [2] | GI50 [3] | GI50 [4] | GI50 [5] | GI50 [6] | GI50 [7] | GI50 [8] | GI50 [9] | GI50 [10] | GI50 [11] | GI50 [12] | GI50 [13] | GI50 [14] | GI50 [15] | GI50 [16] | GI50 [17] | GI50 [18] | GI50 [19] | GI50 [20]
O=C1c2cc([N+](=O)[O-])ccc2-c2ccc3c4ccc5c6c(ccc(c7ccc1c2c73)c64)C(=O)c1cc([N+](=O)[O-])ccc1-5 | > 100 µM (inactive) | > 100 µM (inactive) | > 100 µM (inactive) | > 100 µM (inactive) | > 100 µM (inactive) | > 100 µM (inactive) | > 100 µM (inactive) | > 100 µM (inactive) | > 100 µM (inactive) | > 100 µM (inactive) | > 100 µM (inactive) | > 100 µM (inactive) | > 100 µM (inactive) | > 100 µM (inactive) | > 100 µM (inactive) | > 100 µM (inactive) | > 100 µM (inactive) | > 100 µM (inactive) | > 100 µM (inactive) | –
O=C(C=P(c1ccccc1)(c1ccccc1)c1ccccc1)c1ccccc1-c1ccccc1C(=O)C=P(c1ccccc1)(c1ccccc1)c1ccccc1 | < 0.01 µM (active) | 0.0215 µM (active) | 0.0288 µM (active) | < 0.01 µM (active) | < 0.01 µM (active) | 0.0173 µM (active) | < 0.01 µM (active) | 0.0216 µM (active) | 0.163 µM (active) | 0.0128 µM (active) | 0.0124 µM (active) | 0.0267 µM (active) | 0.185 µM (active) | 0.0208 µM (active) | 0.0206 µM (active) | 0.0212 µM (active) | 0.0127 µM (active) | < 0.01 µM (active) | 0.0111 µM (active) | 0.0248 µM (active)
N#CC1=C2Sc3ccccc3N2[C@H](c2ccccc2)[C@H]2COC(=O)[C@@H]12 | 35.6 µM (inactive) | > 100 µM (inactive) | > 100 µM (inactive) | 63.2 µM (inactive) | > 100 µM (inactive) | 45.2 µM (inactive) | 31 µM (inactive) | > 100 µM (inactive) | 17.5 µM (inactive) | > 100 µM (inactive) | 33.5 µM (inactive) | > 100 µM (inactive) | > 100 µM (inactive) | 70.3 µM (inactive) | 21.6 µM (inactive) | 48 µM (inactive) | > 100 µM (inactive) | > 100 µM (inactive) | > 100 µM (inactive) | –
O=C1c2cccc3cc([N+](=O)[O-])cc(c23)C(=O)N1c1ccc(OCCN2CCCC2)cc1 | > 100 µM (inactive) | 43.2 µM (inactive) | 26.1 µM (inactive) | 22.2 µM (inactive) | 19.8 µM (inactive) | 16.1 µM (inactive) | 7.94 µM (inactive) | – | > 100 µM (inactive) | 3.3 µM (inactive) | 4.85 µM (inactive) | 19.4 µM (inactive) | 21.6 µM (inactive) | 17.9 µM (inactive) | 22 µM (inactive) | 24.5 µM (inactive) | 24.3 µM (inactive) | 22.2 µM (inactive) | 13.9 µM (inactive) | 3.26 µM (inactive)
Cc1ccc(N2CCN(CCC(=O)O)CC2)cc1 | > 100 µM (inactive) | > 100 µM (inactive) | > 100 µM (inactive) | > 100 µM (inactive) | > 100 µM (inactive) | > 100 µM (inactive) | > 100 µM (inactive) | > 100 µM (inactive) | > 100 µM (inactive) | > 100 µM (inactive) | – | > 100 µM (inactive) | > 100 µM (inactive) | > 100 µM (inactive) | > 100 µM (inactive) | > 100 µM (inactive) | > 100 µM (inactive) | > 100 µM (inactive) | > 100 µM (inactive) | > 100 µM (inactive)
O=C1Cc2c([nH]c3ccccc23)C2(CC3CCCCN13)OCCO2 (centres undefined) | > 100 µM (inactive) | 84.5 µM (inactive) | > 100 µM (inactive) | > 100 µM (inactive) | > 100 µM (inactive) | > 100 µM (inactive) | > 100 µM (inactive) | > 100 µM (inactive) | > 100 µM (inactive) | > 100 µM (inactive) | – | > 100 µM (inactive) | > 100 µM (inactive) | 29.2 µM (inactive) | 62.8 µM (inactive) | > 100 µM (inactive) | 34.2 µM (inactive) | > 100 µM (inactive) | > 100 µM (inactive) | > 100 µM (inactive)
COc1cc2c(c(OC)c1OC)C(=O)[C@H]1OC(=O)N[C@@H]21 | > 100 µM (inactive) | > 100 µM (inactive) | > 100 µM (inactive) | > 100 µM (inactive) | > 100 µM (inactive) | > 100 µM (inactive) | > 100 µM (inactive) | > 100 µM (inactive) | > 100 µM (inactive) | > 100 µM (inactive) | > 100 µM (inactive) | > 100 µM (inactive) | – | > 100 µM (inactive) | > 100 µM (inactive) | > 100 µM (inactive) | > 100 µM (inactive) | > 100 µM (inactive) | – | –
N#CC1=C(S)N(C2OC(CO)C(O)C(O)C2O)C(c2ccccc2)=CC1c1ccco1 (centres undefined) | 4.36 µM (inactive) | 54.5 µM (inactive) | 69.5 µM (inactive) | 41.9 µM (inactive) | 40.4 µM (inactive) | 19.8 µM (inactive) | 62.2 µM (inactive) | – | 38.8 µM (inactive) | 46.1 µM (inactive) | 35.2 µM (inactive) | > 100 µM (inactive) | – | 44 µM (inactive) | 16.6 µM (inactive) | 59 µM (inactive) | 32.6 µM (inactive) | 47.4 µM (inactive) | 26.9 µM (inactive) | 28.2 µM (inactive)
COc1cc(/C=C/C2=NN(c3cccc(S(=O)(=O)O)c3)C3(C2)SCC(=O)N3c2nc3ccccc3s2)cc(OC)c1OC (centres undefined) | 15 µM (inactive) | 43.3 µM (inactive) | 31.9 µM (inactive) | 38.5 µM (inactive) | 44.1 µM (inactive) | 33 µM (inactive) | 36.9 µM (inactive) | – | 55.2 µM (inactive) | 56.1 µM (inactive) | 32.9 µM (inactive) | 23 µM (inactive) | 68.1 µM (inactive) | 56.4 µM (inactive) | 63.5 µM (inactive) | 42.1 µM (inactive) | > 100 µM (inactive) | 45.9 µM (inactive) | 74.1 µM (inactive) | 37.5 µM (inactive)
NC(=O)c1cc2ccccc2o/c1=N/O | > 100 µM (inactive) | > 100 µM (inactive) | > 100 µM (inactive) | > 100 µM (inactive) | > 100 µM (inactive) | > 100 µM (inactive) | 29.2 µM (inactive) | > 100 µM (inactive) | 27.9 µM (inactive) | 78.5 µM (inactive) | > 100 µM (inactive) | 54.1 µM (inactive) | 32.2 µM (inactive) | > 100 µM (inactive) | > 100 µM (inactive) | > 100 µM (inactive) | > 100 µM (inactive) | > 100 µM (inactive) | > 100 µM (inactive) | > 100 µM (inactive)
CC(=O)N1N=C(c2ccc3ccccc3c2O)CC1C(=O)c1ccco1 (centres undefined) | 40.6 µM (inactive) | 80.5 µM (inactive) | – | 10.8 µM (inactive) | 25.5 µM (inactive) | 27.7 µM (inactive) | 21.4 µM (inactive) | 36.1 µM (inactive) | 44.1 µM (inactive) | 27.9 µM (inactive) | 5.62 µM (inactive) | 14.7 µM (inactive) | – | 32.4 µM (inactive) | 14.3 µM (inactive) | 18.7 µM (inactive) | 16.6 µM (inactive) | 22.5 µM (inactive) | 25 µM (inactive) | 15.3 µM (inactive)
c1ccc(CN2C3C4N(Cc5ccccc5)C2C2N(Cc5ccccc5)C(C(N2Cc2ccccc2)N4Cc2ccccc2)N3Cc2ccccc2)cc1 | > 100 µM (inactive) | > 100 µM (inactive) | – | > 100 µM (inactive) | > 100 µM (inactive) | > 100 µM (inactive) | > 100 µM (inactive) | > 100 µM (inactive) | > 100 µM (inactive) | > 100 µM (inactive) | > 100 µM (inactive) | > 100 µM (inactive) | > 100 µM (inactive) | > 100 µM (inactive) | > 100 µM (inactive) | > 100 µM (inactive) | > 100 µM (inactive) | > 100 µM (inactive) | > 100 µM (inactive) | –
CC(=O)OC1CC[C@@]2(C)C(CC[C@]3(C)C2CC=C2[C@@H]4C(C)[C@H](C)CCC4(C)CCC23C)[C@@]1(C)C(=O)O (some centres undefined) | 17.9 µM (inactive) | 20.9 µM (inactive) | 22.9 µM (inactive) | 21.2 µM (inactive) | 23.6 µM (inactive) | 22 µM (inactive) | 16 µM (inactive) | 18.4 µM (inactive) | 18.2 µM (inactive) | 17.5 µM (inactive) | 26.8 µM (inactive) | 19.8 µM (inactive) | 18 µM (inactive) | 21.7 µM (inactive) | 19.2 µM (inactive) | 21.3 µM (inactive) | 21.2 µM (inactive) | 15.4 µM (inactive) | 17.4 µM (inactive) | 23.5 µM (inactive)
N[C@@H](Cc1ccc(N(CCCl)CCCl)cc1)C(=O)O [MELPHALAN HYDROCHLORIDE] | 14.1 µM (inactive) | 48.6 µM (inactive) | 51.6 µM (inactive) | 71.1 µM (inactive) | 35.2 µM (inactive) | 27 µM (inactive) | 11.1 µM (inactive) | 32 µM (inactive) | 10.9 µM (inactive) | 28.7 µM (inactive) | 2.79 µM (inactive) | 41.9 µM (inactive) | – | 28.9 µM (inactive) | 34.7 µM (inactive) | 56.2 µM (inactive) | 36.8 µM (inactive) | 37.4 µM (inactive) | 38.3 µM (inactive) | 7.35 µM (inactive)
